Test results: the supplement of paper PMC12698765
Structures can show the parent of a compound that is named as a salt. ± gives the standard deviation of the averaged measurements.

Legend:
[1] = tested on: 409B2 hiPSC (iCRISPR Cas9, FRMD7 editing); assay: cell survival relative to solvent control (fold (ratio to mock)); higher = more surviving cells
Method: (§1)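 Subset screen of 55 drugs tested at 5 concentrations around the effective screening dose, in 409B2 iCRISPR Cas9 hiPSCs editing FRMD7 with a ssDNA donor. Drugs were applied for 24 h. Viability was read by resazurin and editing outcomes by amplicon sequencing (HDR, NHEJ <2 bp microhomology, MMEJ ≥2 bp microhomology). Values are relative to solvent mock controls; two biological replicates.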

[2] = tested on: 409B2 hiPSC (iCRISPR Cas9, FRMD7 editing); assay: NHEJ-attributed indel frequency relative to solvent control (fold (ratio to mock)); higher = more NHEJ outcomes
Method: as §1

[3] = tested on: 409B2 hiPSC (iCRISPR Cas9, FRMD7 editing); assay: MMEJ-attributed deletion frequency relative to solvent control (fold (ratio to mock)); higher = more MMEJ outcomes
Method: as §1

[4] = tested on: 409B2 hiPSC (iCRISPR Cas9, FRMD7 editing); assay: HDR (precise edit) frequency relative to solvent control (fold (ratio to mock)); higher = more homology-directed repair outcomes
Method: as §1

SMILES	cell survival ([1]; 20 nM)	cell survival ([1]; 50 nM)	cell survival ([1]; 100 nM)	cell survival ([1]; 200 nM)	cell survival ([1]; 500 nM)	NHEJ-attributed indel frequency ([2]; 20 nM)	NHEJ-attributed indel frequency ([2]; 200 nM)	NHEJ-attributed indel frequency ([2]; 500 nM)	MMEJ-attributed deletion frequency ([3]; 200 nM)	MMEJ-attributed deletion frequency ([3]; 500 nM)	HDR ([4]; 200 nM)	HDR ([4]; 500 nM)	cell survival ([1]; 2000 nM)	cell survival ([1]; 5000 nM)	NHEJ-attributed indel frequency ([2]; 2000 nM)	NHEJ-attributed indel frequency ([2]; 5000 nM)	MMEJ-attributed deletion frequency ([3]; 2000 nM)	MMEJ-attributed deletion frequency ([3]; 5000 nM)	HDR ([4]; 2000 nM)	HDR ([4]; 5000 nM)	other results
CC(=O)O[C@]1(C(C)=O)CC[C@H]2[C@@H]3C=C(C)C4=CC(=O)CC[C@]4(C)[C@H]3CC[C@@]21C [Megestrol Acetate] (in EtOH)	1.6	1.46	1.18	1.12	1.05	0.999 ± 0.028	1 ± 0.045	1.02 ± 0.032	1.1 ± 0.091	0.9348 ± 0.0058	0.953 ± 0.015	0.96 ± 0.028	–	–	–	–	–	–	–	–	NHEJ-attributed indel frequency ([2]; 50 nM): 1.004 ± 0.007; NHEJ-attributed indel frequency ([2]; 100 nM): 1.03 ± 0.037; MMEJ-attributed deletion frequency ([3]; 20 nM): 1.01 ± 0.013; MMEJ-attributed deletion frequency ([3]; 50 nM): 1.16 ± 0.079; MMEJ-attributed deletion frequency ([3]; 100 nM): 0.9716 ± 0.0036; HDR ([4]; 20 nM): 0.975 ± 0.027; HDR ([4]; 50 nM): 0.93 ± 0.072; HDR ([4]; 100 nM): 0.95 ± 0.068
CCCCCCCCCCCCCC(=O)O [Myristic Acid] (in DMSO)	1.01	1.23	1.07	1.25	1.49	0.9964 ± 0.0076	0.981 ± 0.024	0.967 ± 0.0099	1.1 ± 0.051	1.03 ± 0.099	1.07 ± 0.019	1.1 ± 0.064	–	–	–	–	–	–	–	–	NHEJ-attributed indel frequency ([2]; 50 nM): 1.0053 ± 2.8e-05; NHEJ-attributed indel frequency ([2]; 100 nM): 1.016 ± 0.003; MMEJ-attributed deletion frequency ([3]; 20 nM): 0.977 ± 0.13; MMEJ-attributed deletion frequency ([3]; 50 nM): 0.921 ± 0.13; MMEJ-attributed deletion frequency ([3]; 100 nM): 1.02 ± 0.2; HDR ([4]; 20 nM): 1.04 ± 0.025; HDR ([4]; 50 nM): 1.03 ± 0.072; HDR ([4]; 100 nM): 1.034 ± 0.01
C[C@@H]1O[C@@H](O[C@H]2C[C@@H](O)[C@]3(CO)[C@H]4[C@H](O)C[C@]5(C)[C@@H](C6=CC(=O)OC6)CC[C@]5(O)[C@@H]4CC[C@]3(O)C2)[C@H](O)[C@H](O)[C@H]1O [Ouabain Octahydrate] (in H2O)	–	–	–	–	–	–	–	–	–	–	–	–	0.0512	0.0777	0.523 ± 0.026	0.539 ± 0.1	3.06 ± 0.43	2.82 ± 1.1	0.0693 ± 0.021	0.0683 ± 0.03	cell survival ([1]; 10000 nM): 0.0589; cell survival ([1]; 20000 nM): 0.0655; cell survival ([1]; 50000 nM): 0.585; NHEJ-attributed indel frequency ([2]; 10000 nM): 0.435 ± 0.13; NHEJ-attributed indel frequency ([2]; 20000 nM): 0.392 ± 0.093; NHEJ-attributed indel frequency ([2]; 50000 nM): 0.736 ± 0.38; MMEJ-attributed deletion frequency ([3]; 10000 nM): 2.58 ± 0.43; MMEJ-attributed deletion frequency ([3]; 20000 nM): 2.31 ± 0.4; MMEJ-attributed deletion frequency ([3]; 50000 nM): 1.87 ± 1.1; HDR ([4]; 10000 nM): 0.0814 ± 0.045; HDR ([4]; 20000 nM): 0.068 ± 0.013; HDR ([4]; 50000 nM): 0.505 ± 0.64
CC1(C)S[C@@H]2[C@H](NC(=O)COc3ccccc3)C(=O)N2[C@H]1C(=O)O [Penicillin V potassium salt] (in DMSO)	–	–	–	0.876	1.15	–	1.006 ± 0.0015	1.012 ± 0.0034	1.02 ± 0.097	0.994 ± 0.04	0.992 ± 0.094	1.05 ± 0.012	0.894	0.923	1 ± 0.021	1.01 ± 0.013	1.1 ± 0.047	1.05 ± 0.11	1.01 ± 0.062	0.964 ± 0.11	cell survival ([1]; 1000 nM): 0.976; NHEJ-attributed indel frequency ([2]; 1000 nM): 0.9903 ± 0.0037; MMEJ-attributed deletion frequency ([3]; 1000 nM): 0.963 ± 0.15; HDR ([4]; 1000 nM): 0.992 ± 0.02
Cc1c(C(C)C)c(=O)n(-c2ccccc2)n1C [Propyphenazone (4-Isopropylantipyrine)] (in DMSO)	–	–	–	1.03	1.24	–	1.01 ± 0.013	0.993 ± 0.022	0.984 ± 0.021	0.969 ± 0.059	1.04 ± 0.021	1.11 ± 0.044	1.2	1.13	0.995 ± 0.035	0.988 ± 0.014	0.954 ± 0.091	0.965 ± 0.06	1.07 ± 0.064	1.08 ± 0.031	cell survival ([1]; 1000 nM): 1.03; NHEJ-attributed indel frequency ([2]; 1000 nM): 0.993 ± 0.041; MMEJ-attributed deletion frequency ([3]; 1000 nM): 0.881 ± 0.036; HDR ([4]; 1000 nM): 1.1 ± 0.068
Cc1nc(=O)c2cc(CN(C)c3ccc(C(=O)N[C@@H](CCC(=O)O)C(=O)O)s3)ccc2[nH]1 [Raltitrexed] (in DMSO)	–	–	–	1.09	1.21	–	0.977 ± 0.023	0.967 ± 0.01	1.01 ± 0.14	1 ± 0.078	1.138 ± 0.0048	1.13 ± 0.038	1.05	1.11	0.981 ± 0.026	0.957 ± 0.039	0.948 ± 0.012	1.02 ± 0.057	1.13 ± 0.042	1.13 ± 0.14	cell survival ([1]; 1000 nM): 0.963; NHEJ-attributed indel frequency ([2]; 1000 nM): 0.984 ± 0.021; MMEJ-attributed deletion frequency ([3]; 1000 nM): 1.12 ± 0.035; HDR ([4]; 1000 nM): 1.16 ± 0.1
Oc1cccc(O)c1 [Resorcinol] (in DMSO)	–	–	–	1.15	1.17	–	0.988 ± 0.024	0.995 ± 0.0014	0.916 ± 0.095	0.884 ± 0.054	1.07 ± 0.072	1.08 ± 0.038	1.03	1.12	0.999 ± 0.033	0.99 ± 0.043	0.934 ± 0.13	0.922 ± 0.16	1.07 ± 0.021	1.06 ± 0.073	cell survival ([1]; 1000 nM): 0.955; NHEJ-attributed indel frequency ([2]; 1000 nM): 1 ± 0.043; MMEJ-attributed deletion frequency ([3]; 1000 nM): 0.824 ± 0.045; HDR ([4]; 1000 nM): 1.11 ± 0.026
CC[C@H](CO)Nc1nc(NCc2ccccc2)c2ncn(C(C)C)c2n1 [Roscovitine (Seliciclib,CYC202)] (in DMSO)	1.04	1.14	0.963	0.955	1.17	1.004 ± 0.0097	0.995 ± 0.037	1 ± 0.021	0.943 ± 0.18	1 ± 0.058	1.02 ± 0.043	1.11 ± 0.049	–	–	–	–	–	–	–	–	NHEJ-attributed indel frequency ([2]; 50 nM): 1 ± 0.011; NHEJ-attributed indel frequency ([2]; 100 nM): 0.992 ± 0.013; MMEJ-attributed deletion frequency ([3]; 20 nM): 0.952 ± 0.12; MMEJ-attributed deletion frequency ([3]; 50 nM): 0.912 ± 0.082; MMEJ-attributed deletion frequency ([3]; 100 nM): 0.943 ± 0.021; HDR ([4]; 20 nM): 1.06 ± 0.024; HDR ([4]; 50 nM): 0.983 ± 0.017; HDR ([4]; 100 nM): 1.08 ± 0.043
CNCc1ccc(-c2[nH]c3cc(F)cc4c3c2CCNC4=O)cc1 [Rucaparib (free base)] (in DMSO)	0.789	0.744	0.541	0.487	0.291	0.952 ± 0.015	0.853 ± 0.045	0.787 ± 0.054	0.869 ± 0.16	0.918 ± 0.076	1.32 ± 0.17	1.26 ± 0.037	–	–	–	–	–	–	–	–	NHEJ-attributed indel frequency ([2]; 50 nM): 0.924 ± 0.013; NHEJ-attributed indel frequency ([2]; 100 nM): 0.876 ± 0.034; MMEJ-attributed deletion frequency ([3]; 20 nM): 1.04 ± 0.017; MMEJ-attributed deletion frequency ([3]; 50 nM): 0.892 ± 0.2; MMEJ-attributed deletion frequency ([3]; 100 nM): 0.93 ± 0.079; HDR ([4]; 20 nM): 1.13 ± 0.035; HDR ([4]; 50 nM): 1.302 ± 0.0046; HDR ([4]; 100 nM): 1.31 ± 0.071
O=C(O[C@H]1CN2CCC1CC2)N1CCc2ccccc2[C@@H]1c1ccccc1 [Solifenacin succinate] (in DMSO)	–	–	–	1.04	1.16	–	0.9657 ± 0.0021	0.993 ± 0.015	0.989 ± 0.091	0.991 ± 0.017	1.14 ± 0.017	1.06 ± 0.051	1.06	1.1	1.01 ± 0.017	0.989 ± 0.032	0.937 ± 0.033	1.01 ± 0.12	1.02 ± 0.015	1.09 ± 0.039	cell survival ([1]; 1000 nM): 0.907; NHEJ-attributed indel frequency ([2]; 1000 nM): 0.999 ± 0.026; MMEJ-attributed deletion frequency ([3]; 1000 nM): 0.924 ± 0.054; HDR ([4]; 1000 nM): 1.04 ± 0.12
C1CCN2C[C@@H]3C[C@@H](CN4CCCC[C@@H]34)[C@H]2C1 [Sparteine] (in DMSO)	0.978	1.24	1	1.05	1.26	0.9845 ± 0.0022	0.9919 ± 0.0066	0.988 ± 0.035	1.03 ± 0.086	0.9904 ± 0.0051	1.04 ± 0.051	1.02 ± 0.15	–	–	–	–	–	–	–	–	NHEJ-attributed indel frequency ([2]; 50 nM): 0.98809 ± 0.00026; NHEJ-attributed indel frequency ([2]; 100 nM): 1.01 ± 0.011; MMEJ-attributed deletion frequency ([3]; 20 nM): 0.908 ± 0.028; MMEJ-attributed deletion frequency ([3]; 50 nM): 0.866 ± 0.061; MMEJ-attributed deletion frequency ([3]; 100 nM): 0.957 ± 0.098; HDR ([4]; 20 nM): 1.11 ± 0.044; HDR ([4]; 50 nM): 1.001 ± 0.0048; HDR ([4]; 100 nM): 1.05 ± 0.061
CC[N+](CC)(CC)CC [Tetraethylammonium chloride] (in EtOH)	–	–	–	–	–	–	–	–	–	–	–	–	–	–	–	–	–	–	–	–	cell survival ([1]; 0.2 nM): 0.933; cell survival ([1]; 0.5 nM): 1.09; cell survival ([1]; 1 nM): 0.954; cell survival ([1]; 2 nM): 0.979; cell survival ([1]; 5 nM): 1.03; NHEJ-attributed indel frequency ([2]; 0.2 nM): 0.99 ± 0.026; NHEJ-attributed indel frequency ([2]; 0.5 nM): 0.996 ± 0.018; NHEJ-attributed indel frequency ([2]; 1 nM): 0.99607 ± 0.00072; NHEJ-attributed indel frequency ([2]; 2 nM): 1.007 ± 0.01; NHEJ-attributed indel frequency ([2]; 5 nM): 0.9965 ± 0.0079; MMEJ-attributed deletion frequency ([3]; 0.2 nM): 1.05 ± 0.022; MMEJ-attributed deletion frequency ([3]; 0.5 nM): 1.03 ± 0.11; MMEJ-attributed deletion frequency ([3]; 1 nM): 0.964 ± 0.1; MMEJ-attributed deletion frequency ([3]; 2 nM): 1.053 ± 0.0031; MMEJ-attributed deletion frequency ([3]; 5 nM): 0.9894 ± 0.0011; HDR ([4]; 0.2 nM): 1.11 ± 0.15; HDR ([4]; 0.5 nM): 1.09 ± 0.19; HDR ([4]; 1 nM): 1.02 ± 0.019; HDR ([4]; 2 nM): 0.961 ± 0.11; HDR ([4]; 5 nM): 0.922 ± 0.038
